Experimental data as given in patent US8557812B2, “Small molecule inhibitors of anti-apoptotic BCL-2 family members and the uses thereof” (The Regents of the University of Michigan, priority 2004, dated 2013).
Where two headings read alike, the source gives them in different places.

Columns and labels:
MDA-MB-231 (2LMP) cells = assay: Cell growth of MDA-MB-231 (2LMP) cells (WST); type: cell-based; conditions: Homo sapiens, read-out: IC50 of cell growth inhibition
human Bcl-xL = human Bcl-xL (Homo sapiens, UniProt Q07817); assay: Fluorescence polarization in vitro Bcl-xL binding assay; conditions: displacement of Flu-Bak peptide
Excerpt: For determination of the binding affinity to Bcl-xL protein a human Bcl-xL recombinant His-tagged protein without the C-terminus hydrophobic tail and the Bak-16mer BH3 peptide labeled with 6-carboxyfluorescein succinimidyl ester (FAM) were used.

PC-3 xenograft = conditions: for Complete tumor regression: tumors regressed/total
Method: The tumor sizes were measured 2 times a week and calculated as: Tumor Volume=(A×B^2)/2 where A and B are the tumor length and width (in mm), respectively.

[1] = Body weight of xenograft mice (Example 9); type: in vivo; conditions: doses as in Example 9
Method: To monitor toxicity, animal body weights were measured and plotted in FIG. 10.

Bcl-2 = Bcl-2 (Homo sapiens, UniProt P10415); assay: Fluorescence polarization in vitro Bcl-2 binding assay
Method: Bcl-2 used in this assay is a recombinant His-fused soluble protein. […] Inc., Research Triangle Park, N.C.). […] The unlabeled Bid peptide is used as the positive control. The Ki values were calculated using our developed equation for FP assay (Nikolovska-Coleska et al., Anal. Biochem., 2004, in press). The program for calculating a Ki value is available free of charge via the Internet at http://sw16.im.med.umich.edu/software/calc_ki/.

MDA-231 cells = assay: Cell survival with CDDP and TW-37 alone or in combination; type: cell-based, human
Excerpt: CDDP is a DNA damaging agent and can effectively induce apoptosis in MDA-231 breasted cancer cells and is also a clinically used chemotherapeutic drug for cancer.

[2] = system: PrEC (human normal prostate epithelial cells); assay: Caspase-3 activation in PrEC cells (flow cytometry); type: cell-based; conditions: 48 hours
Method: (§1) The cells were analyzed by flow cytometry in the red channel and the results are shown as percent of cells having active caspase-3 (FIG. 5).

in vivo = conditions: female, Balb/c, mouse, iv
PC-3 cells [3] = assay: Caspase-3 activation in PC-3 cells (flow cytometry); type: cell-based, human; conditions: 5 μM, 48 hours
Method: as §1

PC-3 cells [4] = assay: Apoptosis by Annexin V-FITC staining and flow cytometry; type: cell-based, human; conditions: 2.5 μM, 45 hours
PC-3 tumor = assay: PC-3 xenograft tumor growth, single agents (Example 8); type: in vivo, NCr-nu male nude mice
Method: TAXOTERE (TXT) and cisplatin (CDDP) were used as positive controls. For the PC-3 tumor model, 5×10^6 PC-3 cells were injected into the flanks of NCr-nu male nude mice on both sides. The quarter-MTD and half-MTD doses, i.e., 20 and 40 mg/kg, i.v. q.d.×5 for 3 weeks was tested.

[5] = system: LnCap, PC-3, DU145c, 2LMP and MCF-10A cell lines; assay: Inhibition of cell growth in human cancer cell lines (MTT); type: cell-based; conditions: 120 h, each of LnCap, 5 days
Method: The cells were then incubated at 37° C. with 5% CO2 for 5 days, followed by detection of cell viability with MTT. Untreated cells were used as 100% growth.

Sequence of Bcl-2 (P10415 92-205 limits assumed): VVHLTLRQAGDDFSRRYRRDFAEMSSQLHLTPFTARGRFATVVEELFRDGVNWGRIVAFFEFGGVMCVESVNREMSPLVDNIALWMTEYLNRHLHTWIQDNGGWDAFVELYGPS
Sequence of human Bcl-xL (Q07817 1-209 limits assumed): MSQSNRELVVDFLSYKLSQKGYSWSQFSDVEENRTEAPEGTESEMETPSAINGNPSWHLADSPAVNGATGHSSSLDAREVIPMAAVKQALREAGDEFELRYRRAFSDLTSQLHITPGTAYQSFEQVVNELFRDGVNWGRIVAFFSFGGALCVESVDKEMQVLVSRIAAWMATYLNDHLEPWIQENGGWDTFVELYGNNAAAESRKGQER

With `O=C(c1ccc(Oc2ccccc2)cc1)c1cc(C(=O)c2ccc(-c3ccccc3)cc2)c(O)c(O)c1O` [TM-171] the IC50 (MDA-MB-231 (2LMP) cells) was 0.1 to 20 µM and the IC50 (human Bcl-xL) was ≤ 1 µM.

With `Oc1c(Cc2ccccc2)cc(Cc2ccc(Oc3ccccc3)cc2)c(O)c1O` [TM-141] the IC50 (MDA-MB-231 (2LMP) cells) was 0.1 to 20 µM and the IC50 (human Bcl-xL) was > 1 µM.

For `CC(=O)O[C@@]12CO[C@@H]1C[C@H](O)[C@@]1(C)C(=O)[C@H](O)C3=C(C)[C@@H](OC(=O)[C@H](O)[C@@H](NC(=O)OC(C)(C)C)c4ccccc4)C[C@@](O)([C@@H](OC(=O)c4ccccc4)[C@H]21)C3(C)C` [TAXOTERE, (2R,3S)-N-carboxy-3-phenylisoserine, N-tert-butyl ester, 13-ester with 5b-20-epoxy-12a,4,7b,10b,13a-hexahydroxytax-11-en-9-one 4-acetate 2-benzoate, trihydrate], the “T-C (days) tumor growth delay” value (PC-3 xenograft; TXT 7.5 mg/kg) was 30 days, the “T/C (%) tumor growth inhibition” value (PC-3 xenograft; TXT 7.5 mg/kg) was 55.1% and the “activity under the NCI criteria (T/C<42%)” value (“activity … (T/C<42%)” below) (PC-3 xenograft; TXT 7.5 mg/kg) was “is not”. The Complete tumor regression (PC-3 xenograft; TXT 7.5 mg/kg) was 0/10, the “T-C (days) tumor growth delay” value (PC-3 xenograft; TXT 11 mg/kg) was 32 days and the “T/C (%) tumor growth inhibition” value (PC-3 xenograft; TXT 11 mg/kg) was 32.1%. The “activity … (T/C<42%)” value (PC-3 xenograft; TXT 11 mg/kg) was “significantly active”, the Complete tumor regression (PC-3 xenograft; TXT 11 mg/kg) was 0/10 and the “body weight during treatment” value [1] was “reversible body weight loss”.

For `CCCCCCCCCCC(=O)c1cc(C(C)C)c(O)c(O)c1O` [TM-106], the IC50 (MDA-MB-231 (2LMP) cells) was 0.1 to 20 µM, the IC50 (human Bcl-xL) was > 1 µM and the IC50 (Bcl-2) was > 1 µM.

With `CCCCCCCCCCCc1cc(Cc2ccccc2)c(O)c(O)c1O` [TM-121] the IC50 (MDA-MB-231 (2LMP) cells) was 0.1 to 20 µM, the IC50 (human Bcl-xL) was > 1 µM and the IC50 (Bcl-2) was ≤ 1 µM.

For `CCCCCCCCCCC(=O)c1cc(Cc2ccccc2)c(O)c(O)c1O` [TM-122], the IC50 (MDA-MB-231 (2LMP) cells) was 0.1 to 20 µM, the IC50 (human Bcl-xL) was > 1 µM and the IC50 (Bcl-2) was ≤ 1 µM.

With `O=C(c1ccc(Oc2ccccc2)cc1)c1cc(C(=O)c2ccc3ccccc3c2)c(O)c(O)c1O` [TM-169] the IC50 (MDA-MB-231 (2LMP) cells) was 0.1 to 20 µM and the IC50 (human Bcl-xL) was > 1 µM.

In the case of `CC(C)c1cc(CCc2ccc3ccccc3c2)c(O)c(O)c1O` [TM-107], the IC50 (MDA-MB-231 (2LMP) cells) is reported as 0.1 to 20 µM, the IC50 (human Bcl-xL) is reported as > 1 µM and the IC50 (Bcl-2) is reported as > 1 µM.

In the case of `CCCCCCCCCCCc1cc(C(C)C)c(O)c(O)c1O` [TM-105], the IC50 (MDA-MB-231 (2LMP) cells) is reported as 0.1 to 20 µM, the IC50 (human Bcl-xL) is reported as > 1 µM and the IC50 (Bcl-2) is reported as > 1 µM.

With `Cc1cc(Oc2ccc(Cc3cc(Cc4ccccc4)c(O)c(O)c3O)cc2C(C)C)c2ccccc2n1` [TM-156] the IC50 (MDA-MB-231 (2LMP) cells) was 0.1 to 20 µM.

In the case of `Oc1c(Cc2ccccc2)cc(Cc2ccc(-c3ccccc3)cc2)c(O)c1O` [TM-142], the IC50 (MDA-MB-231 (2LMP) cells) is reported as 0.1 to 20 µM, the IC50 (human Bcl-xL) is reported as > 1 µM and the IC50 (Bcl-2) is reported as > 1 µM.

With `CCCCCCCCCCCCCCC(=O)c1cc(C(C)C)c(O)c(O)c1O` [TM-110] the IC50 (MDA-MB-231 (2LMP) cells) was 0.1 to 20 µM.

In the case of `CC(C)c1cc(C(=O)Cc2ccc3ccccc3c2)c(O)c(O)c1O` [TM-108], the IC50 (MDA-MB-231 (2LMP) cells) is reported as 0.1 to 20 µM, the IC50 (human Bcl-xL) is reported as > 1 µM and the IC50 (Bcl-2) is reported as > 1 µM.

For `CC(C)Cc1ccc(Cc2cc(CCCC3CCCCC3)c(O)c(O)c2O)cc1` [TM-134], the IC50 (MDA-MB-231 (2LMP) cells) was 0.1 to 20 µM.

With `CCCCCCCCCCC(c1ccccc1)c1cc(Cc2ccc(Br)cc2)c(O)c(O)c1O` (centres unmarked) [TM-125] the IC50 (MDA-MB-231 (2LMP) cells) was 0.1 to 20 µM.

`O=C(c1ccc(Cc2cc(CCCc3ccccc3)c(O)c(O)c2O)cc1)c1cccc(O)c1O` [TM-135] gave an IC50 (MDA-MB-231 (2LMP) cells) of 0.1 to 20 µM.

Work on `Cc1cc(C(=O)c2cc(Cc3ccccc3)c(O)c(O)c2O)c(C(C)C)cc1Oc1ccc(C(F)(F)F)cc1[N+](=O)[O-]` [TM-148] yielded an IC50 (MDA-MB-231 (2LMP) cells) of 0.1 to 20 µM.

`CC(C)c1ccc(C(=O)c2cc(CCCc3ccccc3)c(O)c(O)c2O)cc1` [TM-126] showed an IC50 (MDA-MB-231 (2LMP) cells) of 0.1 to 20 µM.

Compound `Cc1cc(Cc2cc(Cc3ccccc3)c(O)c(O)c2O)c(C(C)C)cc1Oc1ccnc2ccccc12` [TM-147] has an IC50 (MDA-MB-231 (2LMP) cells) of 0.1 to 20 µM.

For `CCCCCCCCCCCc1cc(CC2CCCCC2)c(O)c(O)c1O` [TM-129], the IC50 (MDA-MB-231 (2LMP) cells) was 0.1 to 20 µM, the IC50 (human Bcl-xL) was > 1 µM and the IC50 (Bcl-2) was > 1 µM.

Compound `Cc1cc(Cc2cc(Cc3ccccc3)c(O)c(O)c2O)c(C(C)C)cc1Oc1ccc([N+](=O)[O-])c(C(F)(F)F)c1` [TM-145] has an IC50 (MDA-MB-231 (2LMP) cells) of 0.1 to 20 µM.

With `CC(C)Cc1ccc(Cc2cc(CCCc3ccccc3)c(O)c(O)c2O)cc1` [TM-132] the IC50 (MDA-MB-231 (2LMP) cells) was 0.1 to 20 µM.

Compound `Cc1cc(Cc2cc(Cc3ccccc3)c(O)c(O)c2O)c(C(C)C)cc1Oc1ccc2ccccc2n1` [TM-150] has an IC50 (MDA-MB-231 (2LMP) cells) of 0.1 to 20 µM.

`N.N.[Cl][Pt][Cl]` [cisplatin, Cisplatin, reference compound] showed an IC50 (MDA-231 cells; CDDP alone, 42 hours) of ~0.75 µM.

In the case of `Cc1cc(C(=O)c2cc(Cc3ccccc3)c(O)c(O)c2O)c(C(C)C)cc1Oc1ccc([N+](=O)[O-])c(C(F)(F)F)c1` [TM-149], the IC50 (MDA-MB-231 (2LMP) cells) is reported as 0.1 to 20 µM.

With `CCCCCCCCCCC(=O)c1cc(C(CCCCCCCCCC)c2ccccc2)c(O)c(O)c1O` (centres unmarked) [TM-124] the IC50 (MDA-MB-231 (2LMP) cells) was > 20 µM.

`CCCCCCCCCCCCCCCc1cc(C(C)C)c(O)c(O)c1O` [TM-109] gave an IC50 (MDA-MB-231 (2LMP) cells) of 0.1 to 20 µM.

For `O=C(c1ccc(Oc2ccccc2)cc1)c1cc(-c2cccc3ccccc23)c(O)c(O)c1O` [TM-165], the IC50 (MDA-MB-231 (2LMP) cells) was 0.1 to 20 µM and the IC50 (human Bcl-xL) was > 1 µM.

With `Cc1ccc(Cc2ccc(Cc3cc(CCCc4ccccc4)c(O)c(O)c3O)cc2)cc1` [TM-133] the IC50 (MDA-MB-231 (2LMP) cells) was 0.1 to 20 µM and the IC50 (human Bcl-xL) was > 1 µM.

In the case of `CC(C)c1ccccc1Cc1cc(C(=O)Nc2ccc(S(=O)(=O)c3ccccc3C(C)(C)C)cc2)c(O)c(O)c1O` [TW-37, N-[(2-tert-Butyl-benzenesulfonyl)-phenyl]-2,3,4-trihydroxy-5-(2-isopropyl-benyl)-benzamide], the “effect on caspase-3 activation in normal prostate epithelial cells” value [2] is reported as “no effect”, the “T-C (days) tumor growth delay” value (PC-3 xenograft; TW-37 40 mg/kg) is reported as 37 days and the “activity … (T/C<42%)” value (PC-3 xenograft; TW-37 40 mg/kg) is reported as “significantly active”. The “T/C (%) tumor growth inhibition” value (PC-3 xenograft; TW-37 40 mg/kg i.v. q.d.5×3 weeks) was 34.5%, the “tumor growth compared to control” value (PC-3 xenograft; TW-37 40 mg/kg, p<0.001, two-way ANOVA, n=10) was “significantly inhibited tumor growth” and the Complete tumor regression (PC-3 xenograft; TW-37 40 mg/kg) was 0/10. The “body weight during treatment” value [1] was “no obvious body weight loss”, the MTD at 3 weeks (in vivo) was 80 mg/kg and the “cells having activated caspase-3” value (PC-3 cells [3]) was “about 60%”. For the same compound, the apoptotic cells (PC-3 cells [4]) was “about 35%”, the “effect on CDDP induced cell death” value (MDA-231 cells; 0.2 μM or 0.3 μM TW-37, 42 hours) was “enhanced the CDDP induced cell death” and the “potency on tumor growth compared with TAXOTERE” value (PC-3 tumor; 40 mg/kg TW-37 vs TXT 7.5 mg/kg i.v. once a week) was “as potent as TAXOTERE”. The “inhibition of tumor growth in vivo” value (PC-3 tumor; 20 and 40 mg/kg i.v. q.d.5×3 weeks) was “significantly inhibiting tumor growth in vivo”, the IC50 [5] was 1 to 5 µM and the IC50 (Bcl-2) was ≤ 1 µM.

In the case of `O=C(c1ccc(Oc2ccccc2)cc1)c1ccc(O)c(O)c1O` [TM-166], the IC50 (MDA-MB-231 (2LMP) cells) is reported as 0.1 to 20 µM.

For `O=C(c1ccc(Oc2ccccc2)cc1)c1cc(Cc2ccccc2)c(O)c(O)c1O` [TM-140], the IC50 (MDA-MB-231 (2LMP) cells) was 0.1 to 20 µM and the IC50 (human Bcl-xL) was > 1 µM.

`CC(C)c1cc(Cc2cc(Cc3ccccc3)c(O)c(O)c2O)ccc1Oc1ccnc2ccccc12` [TM-154] showed an IC50 (MDA-MB-231 (2LMP) cells) of 0.1 to 20 µM.

For `O=C(c1ccc(Oc2ccccc2)cc1)c1cc(-c2ccc3ccccc3c2)c(O)c(O)c1O` [TM-167], the IC50 (MDA-MB-231 (2LMP) cells) was 0.1 to 20 µM and the IC50 (human Bcl-xL) was > 1 µM.

Work on `CC(C)c1cc(Cc2cc(Cc3ccccc3)c(O)c(O)c2O)ccc1Oc1ccc2ccccc2n1` [TM-153] yielded an IC50 (MDA-MB-231 (2LMP) cells) of 0.1 to 20 µM.
